Assay results reported in ChEMBL document CHEMBL1142880, “Synthesis and anti-HIV activity evaluation of 1-[(alkenyl or alkynyl or alkyloxy)methyl]-5-alkyl-6-(1-naphthoyl)-2,4-pyrimidinediones as novel non-nucleoside HIV-1 reverse transcriptase inhibitors” (Eur J Med Chem, 2007).

Tests used:
[1] = tested on: Human immunodeficiency virus 1; test: Antiviral activity against HIV1 3B in MT4 cells after 4 days by MTT method; assay type: functional, organism-based; details: Human immunodeficiency virus 1, 3B, MT4, 96 h
[2] = Cytotoxicity against MT4 cells after 4 days by MTT method; assay type: cell-based; details: human
[3] = tested on: Human immunodeficiency virus 2; test: Antiviral activity against HIV2 ROD in MT4 cells after 4 days by MTT method; assay type: functional, organism-based; details: Human immunodeficiency virus 2, ROD, MT4, 96 h
[4] = Selectivity index, ratio of CC50 for MT4 cells to IC50 for HIV1 3B; assay type: functional

Row | SMILES | IC50 [1] [µM] | CC50 at 96 h [2] [µM] | IC50 [3] [µM] | Ratio CC50/IC50 [4]
1 | CCc1c(C(=O)c2cccc3ccccc23)n(COCc2ccccc2)c(=O)[nH]c1=O | 0.15 | 38.6 | > 38.6 | 257
2 | Cc1c(C(=O)c2cccc3ccccc23)n(COCc2ccccc2)c(=O)[nH]c1=O | 1.6 | 45.6 | > 45.6 | 29
3 | C=CCOCn1c(C(=O)c2cccc3ccccc23)c(C)c(=O)[nH]c1=O | 2.11 | 131 | > 131 | 62
4 | CCc1c(C(=O)c2cccc3ccccc23)n(CC#Cc2ccccc2)c(=O)[nH]c1=O | 0.21 | 17 | > 17 | 83
5 | CCc1c(C(=O)c2cccc3ccccc23)n(COCc2ccc([N+](=O)[O-])cc2)c(=O)[nH]c1=O | 0.54 | 30.5 | > 30.5 | 55
6 | C=CCOCn1c(C(=O)c2cccc3ccccc23)c(CC)c(=O)[nH]c1=O | 0.19 | 45.6 | > 45.6 | 243
7 | Cc1c(C(=O)c2cccc3ccccc23)n(COCC2CC2)c(=O)[nH]c1=O | 7.69 | 77.6 | > 77.6 | 10
8 | CCOCn1c(C(=O)c2cccc3ccccc23)c(C)c(=O)[nH]c1=O | 4.02 | 51.7 | > 51.7 | 13
9 | CCc1c(C(=O)c2cccc3ccccc23)n(CC2CC=CC2)c(=O)[nH]c1=O | 0.22 | 18.6 | > 18.6 | 84
10 | CC(=O)OC/C=C(\C)Cn1c(C(=O)c2cccc3ccccc23)c(C)c(=O)[nH]c1=O | 41.4 | 200 | > 200 | 5
11 | CC(C)=CCn1c(C(=O)c2cccc3ccccc23)c(C(C)C)c(=O)[nH]c1=O | 2.42 | 30.8 | > 30.8 | 13
12 | Cc1c(Sc2ccccc2)n(COCCO)c(=O)[nH]c1=O [HEPT] | – | 405 | > 406 | 80
13 | CCc1c(C(=O)c2cccc3ccccc23)n(C/C=C/C(=O)OC)c(=O)[nH]c1=O | 0.71 | 38.6 | > 38.6 | 54
14 | CC(C)c1c(C(=O)c2cccc3ccccc23)n(COCc2ccccc2)c(=O)[nH]c1=O | 0.11 | 26.9 | > 26.9 | 233
15 | CCc1c(C(=O)c2cccc3ccccc23)n(COCC=C(C)C)c(=O)[nH]c1=O | 6.89 | 36.4 | > 36.4 | 5
16 | O=c1[nH]cnc2c1ncn2[C@H]1CC[C@@H](CO)O1 [DIDANOSINE] | – | ≥ 529 | – | >=98
17 | CCc1c(C(=O)c2cccc3ccccc23)n(COCC2CC2)c(=O)[nH]c1=O | 0.93 | 45.3 | > 45.3 | 48
18 | CC(C)=CCn1c(C(=O)c2cccc3ccccc23)c(C)c(=O)[nH]c1=O | > 44.6 | 44.6 | > 131 | <1
19 | Cc1c(C(=O)c2cccc3ccccc23)n(CC#Cc2ccccc2)c(=O)[nH]c1=O | 2.79 | 29.9 | > 29.9 | 11
20 | CCOCn1c(C(=O)c2cccc3ccccc23)c(CC)c(=O)[nH]c1=O | 0.28 | 23 | > 23 | 78
